Data as given in US20260125378A2, “Heterocyclic Compounds” (BeOne Medicines I GmbH, priority 2023, published 2026).

Tests used:
[1] = target: T1, Full length DGKα (D21-10BG, SignalChem) (Homo sapiens, UniProt P23743); experiment: Biochemical DGK IC50 assay (ADP-Glo, lipid micelle substrate), DGKα; details: 1 hour preincubation, 1 hour reaction, room temperature
T1 construct: Full length DGKα (D21-10BG, SignalChem); purchased SignalChem D21-10BG
Summary of the method: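 ADP-Glo luminescence quantified ADP produced after a 1 h room-temperature reaction of full-length DGKα on DAG/PS micelles, in HEPES buffer containing MgCl2, CaCl2, vanadate, BSA and Tween-20. IC50 values derive from activity inhibition over a compound concentration series.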

[2] = target: T2, Full length DGKζ (in-house protein M1-V929) (Homo sapiens, UniProt Q13574); experiment: Biochemical DGK IC50 assay (ADP-Glo, lipid micelle substrate), DGKζ; details: 1 hour preincubation, 1 hour reaction, room temperature
T2 construct: His (N); TEV site (N); made in house; host or cells: Sf9 insect cells (Bac-to-Bac baculovirus)
Summary of the method: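 Enzyme: full-length human DGKζ M1-V929, produced in baculovirus-infected Sf9 cells; substrate DAG/PS micelles. Buffer 50 mM HEPES, 10 mM MgCl2, 0.01 mM CaCl2, 0.1 mM Na3VO4.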

T1 sequence (P23743 whole entry): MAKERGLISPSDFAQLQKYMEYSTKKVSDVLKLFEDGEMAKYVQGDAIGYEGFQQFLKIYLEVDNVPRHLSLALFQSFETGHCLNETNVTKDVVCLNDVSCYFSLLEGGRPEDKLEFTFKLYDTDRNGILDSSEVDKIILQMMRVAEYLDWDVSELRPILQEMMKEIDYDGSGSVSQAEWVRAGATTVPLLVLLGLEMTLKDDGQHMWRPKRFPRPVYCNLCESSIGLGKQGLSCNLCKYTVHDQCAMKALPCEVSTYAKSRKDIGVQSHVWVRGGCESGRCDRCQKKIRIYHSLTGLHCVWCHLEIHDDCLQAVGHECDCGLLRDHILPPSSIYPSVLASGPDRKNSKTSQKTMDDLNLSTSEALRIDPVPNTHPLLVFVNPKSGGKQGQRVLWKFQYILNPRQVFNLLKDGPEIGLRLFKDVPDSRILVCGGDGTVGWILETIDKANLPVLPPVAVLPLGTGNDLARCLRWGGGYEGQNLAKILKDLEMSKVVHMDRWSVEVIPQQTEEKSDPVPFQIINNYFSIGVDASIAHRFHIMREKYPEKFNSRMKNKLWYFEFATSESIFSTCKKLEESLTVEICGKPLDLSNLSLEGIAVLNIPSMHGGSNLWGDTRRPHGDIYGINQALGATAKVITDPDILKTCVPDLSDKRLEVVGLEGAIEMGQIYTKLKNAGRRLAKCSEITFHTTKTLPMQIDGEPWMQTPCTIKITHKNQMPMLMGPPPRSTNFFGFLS
T2 sequence (Q13574 1-929 isoform Q13574-4): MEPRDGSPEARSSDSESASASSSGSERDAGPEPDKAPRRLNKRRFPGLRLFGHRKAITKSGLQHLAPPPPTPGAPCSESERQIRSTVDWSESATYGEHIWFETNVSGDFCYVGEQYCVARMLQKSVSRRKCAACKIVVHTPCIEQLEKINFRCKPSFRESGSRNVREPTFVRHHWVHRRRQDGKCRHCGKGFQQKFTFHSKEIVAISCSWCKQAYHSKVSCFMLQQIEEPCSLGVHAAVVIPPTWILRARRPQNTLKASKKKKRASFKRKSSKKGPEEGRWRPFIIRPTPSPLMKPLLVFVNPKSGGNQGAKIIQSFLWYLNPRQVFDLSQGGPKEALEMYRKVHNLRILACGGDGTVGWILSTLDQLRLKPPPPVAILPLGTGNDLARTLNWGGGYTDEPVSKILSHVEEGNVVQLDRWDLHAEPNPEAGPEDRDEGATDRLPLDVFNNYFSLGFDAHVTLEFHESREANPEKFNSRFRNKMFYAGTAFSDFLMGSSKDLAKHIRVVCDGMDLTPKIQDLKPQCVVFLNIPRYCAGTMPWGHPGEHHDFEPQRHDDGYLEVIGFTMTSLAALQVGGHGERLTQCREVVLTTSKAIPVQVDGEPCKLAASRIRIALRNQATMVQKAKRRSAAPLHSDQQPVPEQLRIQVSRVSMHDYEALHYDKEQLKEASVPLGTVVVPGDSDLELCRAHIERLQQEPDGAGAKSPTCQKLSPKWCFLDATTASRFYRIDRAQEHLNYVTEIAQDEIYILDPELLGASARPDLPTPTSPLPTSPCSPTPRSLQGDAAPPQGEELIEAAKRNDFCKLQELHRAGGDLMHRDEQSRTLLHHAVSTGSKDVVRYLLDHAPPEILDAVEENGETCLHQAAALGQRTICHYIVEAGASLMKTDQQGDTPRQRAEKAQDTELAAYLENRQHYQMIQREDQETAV

Row | IC50 [1] [nM] | IC50 [2] [nM] | SMILES
1 | 48700 | 64 | CCn1c(CC#N)nc2c(N3C[C@@H](C)N(C(C)c4ccc(C(F)(F)F)c(C)c4)C[C@@H]3C)nc(=O)n(C)c21 (stereo partly drawn) [Compound A137, 2-(6-((2S,5R)-2,5-dimethyl-4-(1-(3-methyl-4-(trifluoromethyl)phenyl)ethyl)piperazin-1-yl)-9-ethyl-3-methyl-2-oxo-3,9-dihydro-2H-purin-8-yl)acetonitrile]
2 | 106000 | 13 | CCn1c(CC#N)nc2c(N3C[C@@H](C)N(C(C)c4ccc5c(c4F)OC(C)(C)O5)C[C@@H]3C)c(F)c(=O)n(C)c21 (mixture of isomers) [Compound A190, 2-(3-ethyl-6-fluoro-7-((2S,5R)-4-(1-(4-fluoro-2,2-dimethylbenzo[d][1,3]dioxol-5-yl)ethyl)-2,5-dimethylpiperazin-1-yl)-4-methyl-5-oxo-4,5-dihydro-3H-imidazo[4,5-b]pyridin-2-yl)acetonitrile]
3 | > 10000 | 9 | CC[C@H]1CN(C(C)c2ccc(F)cc2C(F)(F)F)[C@H](CC)CN1c1nc(=O)n(C)c2c1nc(CC#N)n2C (single isomer, unassigned) [Compound A34b]
4 | 31700 | 10 | CCn1c(CC#N)nc2c(N3C[C@@H](C)N(C(C)c4ccc5c(c4)OC4(CCC4)O5)C[C@@H]3C)nc(=O)n(C)c21 (single isomer, unassigned) [Compound A169a]
5 | 9700 | 16 | CC(c1cccc(C(F)(F)F)c1)N1C[C@H](C)N(c2nc(=O)n(C)c3c2nc(CC#N)n3C)C[C@H]1C (stereo partly drawn) [Compound A41, 2-(6-((2S,5R)-2,5-dimethyl-4-(1-(3-(trifluoromethyl)phenyl)ethyl)piperazin-1-yl)-3,9-dimethyl-2-oxo-3,9-dihydro-2H-purin-8-yl)acetonitrile]
6 | > 150000 | 1290 | CCn1c(CC#N)nc2c(N3C[C@@H](C)N(C(C)c4cccc(N5CCOCC5)c4)C[C@@H]3C)nc(=O)n(C)c21 (stereo partly drawn) [Compound A141, 2-(6-((2S,5R)-2,5-dimethyl-4-(1-(3-morpholinophenyl)ethyl)piperazin-1-yl)-9-ethyl-3-methyl-2-oxo-3,9-dihydro-2H-purin-8-yl)acetonitrile]
7 | 61900 | 8 | CC[C@@H]1CN(c2nc(=O)n(C)c3c2nc(CC#N)n3CC)[C@@H](C)CN1C(C)c1ccc2c(n1)OC(C)(C)CO2 (single isomer, unassigned) [Compound A158a]
8 | 77900 | 6 | Cc1cnc2ccc(C(C)N3C[C@H](C)N(c4nc(=O)n(C)c5c4nc(CC#N)n5C)C[C@H]3C)cc2n1 (single isomer, unassigned) [Compound A49a]
9 | 108000 | 810 | CCn1c(CC#N)nc2c(N3C[C@@H](C)N(C(C)c4ccc5nc(C)sc5c4)C[C@@H]3C)nc(=O)n(C)c21 (single isomer, unassigned) [Compound A56a]
10 | 2690 | 707 | CC#CCc1nc2c(N3C[C@@H](CC)N(C(C)c4ccc(C(F)(F)F)cc4)C[C@@H]3CC)nc(=O)n(C)c2n1C (stereo partly drawn) [Compound A152, 8-(but-2-yn-1-yl)-6-((2S,5R)-2,5-diethyl-4-(1-(4-(trifluoromethyl)phenyl)ethyl)piperazin-1-yl)-3,9-dimethyl-3,9-dihydro-2H-purin-2-one]
11 | 34500 | 71 | CCn1c(CC#N)nc2c(N3C[C@@H](C)N(C(C)c4ccc5c(c4)OC(F)(F)O5)C[C@@H]3C)nc(=O)n(C)c21 (single isomer, unassigned) [Compound A99a]
12 | 115000 | 407 | CCn1c(CC#N)nc2c(N3C[C@@H](C)N(C(C)c4cccc5c4OC(F)(F)O5)C[C@@H]3C)nc(=O)n(C)c21 (stereo partly drawn) [Compound A187, 2-(6-((2S,5R)-4-(1-(2,2-difluorobenzo[d][1,3]dioxol-4-yl)ethyl)-2,5-dimethylpiperazin-1-yl)-9-ethyl-3-methyl-2-oxo-3,9-dihydro-2H-purin-8-yl)acetonitrile]
13 | 616 | 88 | Cc1ccc(C(C)N2C[C@H](C)N(c3cc(=O)n(C)c4c3nc(CC#N)n4C)C[C@H]2C)cc1 (single isomer, unassigned) [Compound A5b]
14 | 6940 | 82 | CC(c1ccc2c(c1)OC(C)(C)CO2)N1C[C@H](C)N(c2c(F)c(=O)n(C)c3c2nc(CC#N)n3C)C[C@H]1C (single isomer, unassigned) [Compound A19b]
15 | 11600 | 5 | CC(c1ccc2c(c1)OC(C)(C)O2)N1C[C@H](C)N(c2nc(=O)n(C)c3c2nc(CC#N)n3C)C[C@H]1C (stereo partly drawn) [Compound A98, 2-(6-((2S,5R)-4-(1-(2,2-dimethylbenzo[d][1,3]dioxol-5-yl)ethyl)-2,5-dimethylpiperazin-1-yl)-3,9-dimethyl-2-oxo-3,9-dihydro-2H-purin-8-yl)acetonitrile]
16 | > 150000 | 253 | CCn1c(CC#N)nc2c(N3C[C@@H](C)N(C(C)c4cc5c(cn4)OCC(C)(C)O5)C[C@@H]3C)nc(=O)n(C)c21 (stereo partly drawn) [Compound A75, 2-(6-((2S,5R)-4-(1-(2,2-dimethyl-2,3-dihydro-[1,4]dioxino[2,3-c]pyridin-7-yl)ethyl)-2,5-dimethylpiperazin-1-yl)-9-ethyl-3-methyl-2-oxo-3,9-dihydro-2H-purin-8-yl)acetonitrile]
17 | > 150000 | 35 | CCn1c(CC#N)nc2c(N3C[C@@H](C)N(C(C)c4ccc(F)c(C(F)F)c4)C[C@@H]3C)nc(=O)n(C)c21 (stereo partly drawn) [Compound A112, 2-(6-((2S,5R)-4-(1-(3-(difluoromethyl)-4-fluorophenyl)ethyl)-2,5-dimethylpiperazin-1-yl)-9-ethyl-3-methyl-2-oxo-3,9-dihydro-2H-purin-8-yl)acetonitrile]
18 | 36900 | 15 | CC(c1ccc(F)cc1OC(F)F)N1C[C@H](C)N(c2nc(=O)n(C)c3c2nc(CC#N)n3C)C[C@H]1C (stereo partly drawn) [Compound A25, 2-(6-((2S,5R)-4-(1-(2-(difluoromethoxy)-4-fluorophenyl)ethyl)-2,5-dimethylpiperazin-1-yl)-3,9-dimethyl-2-oxo-3,9-dihydro-2H-purin-8-yl)acetonitrile]
19 | 21900 | 2 | CC(c1ccc2c(c1)OC(C)(C)CO2)N1C[C@H](C)N(c2nc(=O)n(C)c3c2nc(CC#N)n3CC(F)F)C[C@H]1C (stereo partly drawn) [Compound A87, 2-(9-(2,2-difluoroethyl)-6-((2S,5R)-4-(1-(3,3-dimethyl-2,3-dihydrobenzo[b][1,4]dioxin-6-yl)ethyl)-2,5-dimethylpiperazin-1-yl)-3-methyl-2-oxo-3,9-dihydro-2H-purin-8-yl)acetonitrile]
20 | > 150000 | 64 | CCn1c(CC#N)nc2c(N3C[C@@H](C)N(C(C)c4cc(Cl)c5c(c4)OC(C)(C)CO5)C[C@@H]3C)nc(=O)n(C)c21 (stereo partly drawn) [Compound A72, 2-(6-((2S,5R)-4-(1-(8-chloro-3,3-dimethyl-2,3-dihydrobenzo[b][1,4]dioxin-6-yl)ethyl)-2,5-dimethylpiperazin-1-yl)-9-ethyl-3-methyl-2-oxo-3,9-dihydro-2H-purin-8-yl)acetonitrile]
21 | > 150000 | 37 | CCn1c(CC#N)nc2c(N3C[C@@H](C)N(C(C)c4ccc5c(n4)C(F)(F)CCO5)C[C@@H]3C)nc(=O)n(C)c21 (stereo partly drawn) [Compound A102, 2-(6-((2S,5R)-4-(1-(4,4-difluoro-3,4-dihydro-2H-pyrano[3,2-b]pyridin-6-yl)ethyl)-2,5-dimethylpiperazin-1-yl)-9-ethyl-3-methyl-2-oxo-3,9-dihydro-2H-purin-8-yl)acetonitrile]
22 | 145000 | 75 | CCn1c(CC#N)nc2c(N3C[C@@H](C)N(C(C)c4cccc(OC(C)C)n4)C[C@@H]3C)nc(=O)n(C)c21 (single isomer, unassigned) [Compound A117b]
23 | > 10000 | 3740 | Cc1ccc(C(C)N2C[C@H](C)N(c3nc(=O)n(C)c4c3nc(CC#N)n4C)C[C@H]2C)c(C(F)(F)F)c1 (single isomer, unassigned) [Compound A32a]
24 | > 150000 | 40 | CCn1c(CC#N)nc2c(N3C[C@@H](C)N(C(C)c4ccc5c(c4)C(=O)N(C)C5=O)C[C@@H]3C)nc(=O)n(C)c21 (stereo partly drawn) [Compound A83, 2-(6-((2S,5R)-2,5-dimethyl-4-(1-(2-methyl-1,3-dioxoisoindolin-5-yl)ethyl)piperazin-1-yl)-9-ethyl-3-methyl-2-oxo-3,9-dihydro-2H-purin-8-yl)acetonitrile]
25 | 2430 | 178 | CC(c1cc2ccccc2cn1)N1C[C@H](C)N(c2nc(=O)n(C)c3c2nc(CC#N)n3C)C[C@H]1C (stereo partly drawn) [Compound A154, 2-(6-((2S,5R)-4-(1-(isoquinolin-3-yl)ethyl)-2,5-dimethylpiperazin-1-yl)-3,9-dimethyl-2-oxo-3,9-dihydro-2H-purin-8-yl)acetonitrile]
26 | > 150000 | 69 | CC(c1ccc2c(n1)OC(C)(C)CO2)N1C[C@H](C)N(c2nc(=O)n(C)c3c2nc(CC#N)n3CC(F)F)C[C@H]1C (stereo partly drawn) [Compound A165, 2-(9-(2,2-difluoroethyl)-6-((2S,5R)-4-(1-(3,3-dimethyl-2,3-dihydro-[1,4]dioxino[2,3-b]pyridin-6-yl)ethyl)-2,5-dimethylpiperazin-1-yl)-3-methyl-2-oxo-3,9-dihydro-2H-purin-8-yl)acetonitrile]
27 | 82500 | 20 | CCn1c(CC#N)nc2c(N3C[C@@H](C)N(C(C)c4ccc(F)c5c4OC(C)(C)O5)C[C@@H]3C)nc(=O)n(C)c21 (single isomer, unassigned) [Compound A185b]
